# Experimental data reported in patent US20190256929A1, “PHARMACODYNAMIC BIOMARKERS FOR PERSONALIZED CANCER CARE USING EPIGENETIC MODIFYING AGENTS” (ORYZON GENOMICS, S.A., priority 2016, published 2019).
# System: small cell lung cancer cell lines
# Assay: qRT-PCR time- and dosage-dependent expression change of candidate PD markers ASCL1, GRP, NOTCH1 in SCLC cell lines
# Type: cell-based, human
# Protocol: Seven small cell lung cancer cell lines were treated with 0.1 nM, 1 nM and 10 nM (trans)-N1-((1R,2S)-2-phenylcyclopropyl)cyclohexane-1,4-diamine or vehicle 24 hr, 96 hr and 7 days. Lysates were prepared by lysis in RNA lysis buffer containing 1% β-mercaptoethanol. RNA extraction was performed using a Maxwell 16 instrument and a Maxwell 16 LEV simply RNA cells Kit (Promega), according to the manufacturer's instructions. The mRNA expression levels of each cell line after treatment were then measured using qRT-PCR. The RT-qPCR reaction was conducted using a one-step kit (ABI), with a duplexed house-keeping control (Assay ID Hs02800695_m1) using the assays in the table below. The log 2 fold changes for each gene were calculated by comparing with the vehicle controlled samples at 24 hr sampling point.
# Table 6 contains the dose-dependent effect on expression changes for candidate PD markers ASCL1 (Assay ID Hs04187546_g1), GRP (Assay ID Hs01107047_m1) and NOTCH1 (Assay ID Hs01062014_m1).
# [1] = LSD1i responsive cell lines, qRT-PCR
# [2] = NCI-H69, 0.1 nM, 24 hrs, vs vehicle at 24 hr
# [3] = NCI-H69, 0.1 nM, 96 hrs, vs vehicle at 24 hr
# [4] = NCI-H69, 0.1 nM, 168 hrs, vs vehicle at 24 hr
# [5] = NCI-H69, 1 nM, 24 hrs, vs vehicle at 24 hr
# [6] = NCI-H69, 1 nM, 96 hrs, vs vehicle at 24 hr
# [7] = NCI-H69, 1 nM, 168 hrs, vs vehicle at 24 hr
# [8] = NCI-H69, 10 nM, 24 hrs, vs vehicle at 24 hr
# [9] = NCI-H69, 10 nM, 96 hrs, vs vehicle at 24 hr
# [10] = NCI-H69, 10 nM, 168 hrs, vs vehicle at 24 hr
compound,measurement,setting,value
"N[C@H]1CC[C@H](N[C@@H]2C[C@H]2c2ccccc2)CC1 [RG6016, (trans)-N1-((1R,2S)-2-phenylcyclopropyl)cyclohexane-1,4-diamine]",Log2_FC ASCL1,"DMS-114, 0.1 nM, 24 hrs",−0.28
same,Log2_FC GRP,"DMS-114, 0.1 nM, 24 hrs",0.32
same,Log2_FC NOTCH1,"DMS-114, 0.1 nM, 24 hrs",−0.47
same,Log2_FC ASCL1,"DMS-114, 0.1 nM, 96 hrs",0.18
same,Log2_FC GRP,"DMS-114, 0.1 nM, 96 hrs",0.25
same,Log2_FC NOTCH1,"DMS-114, 0.1 nM, 96 hrs",−0.11
same,Log2_FC ASCL1,"DMS-114, 0.1 nM, 168 hrs",0.93
same,Log2_FC GRP,"DMS-114, 0.1 nM, 168 hrs",0.08
same,Log2_FC NOTCH1,"DMS-114, 0.1 nM, 168 hrs",0.08
same,Log2_FC ASCL1,"DMS-114, 1 nM, 24 hrs",−0.50
same,Log2_FC GRP,"DMS-114, 1 nM, 24 hrs",0.45
same,Log2_FC NOTCH1,"DMS-114, 1 nM, 24 hrs",−0.47
same,Log2_FC ASCL1,"DMS-114, 1 nM, 96 hrs",−0.04
same,Log2_FC GRP,"DMS-114, 1 nM, 96 hrs",−0.34
same,Log2_FC NOTCH1,"DMS-114, 1 nM, 96 hrs",−0.23
same,Log2_FC ASCL1,"DMS-114, 1 nM, 168 hrs",1.02
same,Log2_FC GRP,"DMS-114, 1 nM, 168 hrs",0.86
same,Log2_FC NOTCH1,"DMS-114, 1 nM, 168 hrs",0.08
same,Log2_FC ASCL1,"DMS-114, 10 nM, 24 hrs",−0.52
same,Log2_FC GRP,"DMS-114, 10 nM, 24 hrs",0.51
same,Log2_FC NOTCH1,"DMS-114, 10 nM, 24 hrs",−0.35
same,Log2_FC ASCL1,"DMS-114, 10 nM, 96 hrs",−0.38
same,Log2_FC GRP,"DMS-114, 10 nM, 96 hrs",0.67
same,Log2_FC NOTCH1,"DMS-114, 10 nM, 96 hrs",−0.30
same,Log2_FC ASCL1,"DMS-114, 10 nM, 168 hrs",0.94
same,Log2_FC GRP,"DMS-114, 10 nM, 168 hrs",−0.12
same,Log2_FC NOTCH1,"DMS-114, 10 nM, 168 hrs",0.13
same,Regulation of ASCL1 (FIG. 8),[1],down
same,Regulation of GRP (FIG. 8),[1],down
same,Regulation of NOTCH1 (FIG. 8),[1],up
same,Log2_FC ASCL1,[2],−0.47
same,Log2_FC GRP,[2],−0.77
same,Log2_FC NOTCH1,[2],−0.17
same,Log2_FC ASCL1,[3],−0.63
same,Log2_FC GRP,[3],−1.46
same,Log2_FC NOTCH1,[3],0.57
same,Log2_FC ASCL1,[4],−0.75
same,Log2_FC GRP,[4],−1.26
same,Log2_FC NOTCH1,[4],0.94
same,Log2_FC ASCL1,[5],−0.71
same,Log2_FC GRP,[5],−0.51
same,Log2_FC NOTCH1,[5],0.26
same,Log2_FC ASCL1,[6],−1.33
same,Log2_FC GRP,[6],−2.14
same,Log2_FC NOTCH1,[6],2.26
same,Log2_FC ASCL1,[7],−1.36
same,Log2_FC GRP,[7],−2.12
same,Log2_FC NOTCH1,[7],2.38
same,Log2_FC ASCL1,[8],−0.80
same,Log2_FC GRP,[8],−0.97
same,Log2_FC NOTCH1,[8],1.33
same,Log2_FC ASCL1,[9],−1.40
same,Log2_FC GRP,[9],−2.19
same,Log2_FC NOTCH1,[9],2.42
same,Log2_FC ASCL1,[10],−1.62
same,Log2_FC GRP,[10],−2.85
same,Log2_FC NOTCH1,[10],3.22
same,Log2_FC ASCL1,"NCI-H187, 0.1 nM, 24 hrs",0.07
same,Log2_FC GRP,"NCI-H187, 0.1 nM, 24 hrs",0.16
same,Log2_FC NOTCH1,"NCI-H187, 0.1 nM, 24 hrs",−0.27
same,Log2_FC ASCL1,"NCI-H187, 0.1 nM, 96 hrs",0.24
same,Log2_FC GRP,"NCI-H187, 0.1 nM, 96 hrs",−0.29
same,Log2_FC NOTCH1,"NCI-H187, 0.1 nM, 96 hrs",0.10
same,Log2_FC ASCL1,"NCI-H187, 0.1 nM, 168 hrs",0.11
same,Log2_FC GRP,"NCI-H187, 0.1 nM, 168 hrs",−0.50
same,Log2_FC NOTCH1,"NCI-H187, 0.1 nM, 168 hrs",0.27
same,Log2_FC ASCL1,"NCI-H187, 1 nM, 24 hrs",−0.01
same,Log2_FC GRP,"NCI-H187, 1 nM, 24 hrs",0.05
same,Log2_FC NOTCH1,"NCI-H187, 1 nM, 24 hrs",0.49
same,Log2_FC ASCL1,"NCI-H187, 1 nM, 96 hrs",0.05
same,Log2_FC GRP,"NCI-H187, 1 nM, 96 hrs",−0.03
same,Log2_FC NOTCH1,"NCI-H187, 1 nM, 96 hrs",0.81
same,Log2_FC ASCL1,"NCI-H187, 1 nM, 168 hrs",0.16
same,Log2_FC GRP,"NCI-H187, 1 nM, 168 hrs",−0.59
same,Log2_FC NOTCH1,"NCI-H187, 1 nM, 168 hrs",0.95
same,Log2_FC ASCL1,"NCI-H187, 10 nM, 24 hrs",0.13
same,Log2_FC GRP,"NCI-H187, 10 nM, 24 hrs",−0.16
same,Log2_FC NOTCH1,"NCI-H187, 10 nM, 24 hrs",0.42
same,Log2_FC ASCL1,"NCI-H187, 10 nM, 96 hrs",0.13
same,Log2_FC GRP,"NCI-H187, 10 nM, 96 hrs",−0.61
same,Log2_FC NOTCH1,"NCI-H187, 10 nM, 96 hrs",0.83
same,Log2_FC ASCL1,"NCI-H187, 10 nM, 168 hrs",0.07
same,Log2_FC GRP,"NCI-H187, 10 nM, 168 hrs",−0.67
same,Log2_FC NOTCH1,"NCI-H187, 10 nM, 168 hrs",1.44
same,Log2_FC ASCL1,"NCI-H446, 0.1 nM, 24 hrs",−0.27
same,Log2_FC NOTCH1,"NCI-H446, 0.1 nM, 24 hrs",−0.04
same,Log2_FC NOTCH1,"NCI-H446, 0.1 nM, 96 hrs",−0.13
same,Log2_FC ASCL1,"NCI-H446, 0.1 nM, 168 hrs",−0.56
same,Log2_FC NOTCH1,"NCI-H446, 0.1 nM, 168 hrs",−0.40
same,Log2_FC ASCL1,"NCI-H446, 1 nM, 24 hrs",0.00
same,Log2_FC NOTCH1,"NCI-H446, 1 nM, 24 hrs",−0.02
same,Log2_FC ASCL1,"NCI-H446, 1 nM, 96 hrs",−0.20
same,Log2_FC NOTCH1,"NCI-H446, 1 nM, 96 hrs",0.06
same,Log2_FC ASCL1,"NCI-H446, 1 nM, 168 hrs",0.02
same,Log2_FC NOTCH1,"NCI-H446, 1 nM, 168 hrs",0.29
same,Log2_FC ASCL1,"NCI-H446, 10 nM, 24 hrs",−0.34
same,Log2_FC NOTCH1,"NCI-H446, 10 nM, 24 hrs",0.04
same,Log2_FC NOTCH1,"NCI-H446, 10 nM, 96 hrs",0.16
same,Log2_FC ASCL1,"NCI-H446, 10 nM, 168 hrs",0.58
same,Log2_FC NOTCH1,"NCI-H446, 10 nM, 168 hrs",0.42
same,Log2_FC NOTCH1,"NCI-H510A, 0.1 nM, 24 hrs, vs vehicle at 24 hr",0.53
same,Log2_FC NOTCH1,"NCI-H510A, 0.1 nM, 96 hrs, vs vehicle at 24 hr",1.93
same,Log2_FC NOTCH1,"NCI-H510A, 0.1 nM, 168 hrs, vs vehicle at 24 hr",3.00
same,Log2_FC ASCL1,"NCI-H510A, 0.1 nM, 24 hrs",0.07
same,Log2_FC GRP,"NCI-H510A, 0.1 nM, 24 hrs",0.22
same,Log2_FC ASCL1,"NCI-H510A, 0.1 nM, 96 hrs",0.17
same,Log2_FC GRP,"NCI-H510A, 0.1 nM, 96 hrs",−0.30
same,Log2_FC ASCL1,"NCI-H510A, 0.1 nM, 168 hrs",0.03
same,Log2_FC GRP,"NCI-H510A, 0.1 nM, 168 hrs",−0.44
same,Log2_FC ASCL1,"NCI-H510A, 1 nM, 24 hrs",−0.23
same,Log2_FC GRP,"NCI-H510A, 1 nM, 24 hrs",−0.30
same,Log2_FC NOTCH1,"NCI-H510A, 1 nM, 24 hrs",1.19
same,Log2_FC ASCL1,"NCI-H510A, 1 nM, 96 hrs",−0.50
same,Log2_FC GRP,"NCI-H510A, 1 nM, 96 hrs",−1.75
same,Log2_FC NOTCH1,"NCI-H510A, 1 nM, 96 hrs",2.87
